pIC50: −log10 of the molar value. Where “and” joins values, the source holds several entries; their conditions need not be identical. Equal entries are not always repeated. Where two headings read alike, the source gives them in different places.
Legend:
SFRP-1 [1] = target: T1, SFRP-1 (Homo sapiens, UniProt Q8N474); assay: Cell-based assay for in vitro measurement of SFRP-1/SARP2 antagonist activity (U2OS cells co-transfected with 16x TCF-tk-Luciferase reporter, Wnt and hSFRP-1); details: for fold induction at 14 µM / fold induction at 15 µM: U2OS;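 as to all read-outs here: U2OS cells co-transfected with a TCF-tk luciferase reporter, a Wnt vector, hSFRP-1 or empty vector and CMV-βgal, luciferase luminescence read in cell lysates alongside βgal activity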
T1 sequence (Q8N474 32-314): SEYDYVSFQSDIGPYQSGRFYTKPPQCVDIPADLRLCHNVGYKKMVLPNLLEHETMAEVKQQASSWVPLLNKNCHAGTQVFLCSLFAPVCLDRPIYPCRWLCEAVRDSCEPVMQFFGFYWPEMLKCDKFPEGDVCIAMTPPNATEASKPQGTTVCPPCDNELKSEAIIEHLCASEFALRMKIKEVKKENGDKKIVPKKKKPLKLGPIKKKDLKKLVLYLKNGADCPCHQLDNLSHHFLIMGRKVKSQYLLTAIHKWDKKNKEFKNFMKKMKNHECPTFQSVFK

SFRP-1 [2] = target: T1, SFRP-1; assay: Fluorescence polarization binding assay (competitive displacement of a probe compound from SFRP-1); details: fluorescence anisotropy, 45 nM SFRP-1, 20 nM probe;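 also: test compound competes with a fluorescent probe held by SFRP-1, seen as a drop in probe anisotropy after incubation in darkness, with anisotropy as function of rising compound dose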
[3] = read-out: Fold Induction with SFRP-1, Conc 15 μM, with SFRP-1, fold induction over SFRP-1 control, single dose
[4] = read-out: Fold Induction without SFRP-1, Conc 15 μM, without SFRP-1, single dose
[5] = Conc 15 μM, with SFRP-1, fold induction over SFRP-1 control, single dose

| SMILES | fold induction at 14 µM (SFRP-1 [1]; read-out: Fold Induction with SFRP-1, Conc 14 μM, with SFRP-1, fold induction over SFRP-1 control, single dose) | fold induction at 15 µM (SFRP-1 [1]; [3]) | fold induction at 14 µM (SFRP-1 [1]; read-out: Fold Induction without SFRP-1, Conc 14 μM, without SFRP-1, single dose) | fold induction at 15 µM (SFRP-1 [1]; [4]) | pIC50 (SFRP-1 [2]) | Fold Induction with SFRP-1 (SFRP-1 [1]; [5]) | Fold Induction without SFRP-1 (SFRP-1 [1]; Conc 15 μM, without SFRP-1, single dose) |
| --- | --- | --- | --- | --- | --- | --- | --- |
| Cc1ccc(S(=O)(=O)c2ccccc2)cc1S(=O)(=O)NCCc1ccccn1 [Example 205, 2-methyl-5-(phenylsulfonyl)-N-(2-pyridin-2-ylethyl)benzenesulfonamide] | – | 2.3 | – | 0.8 | 5.52 | – | – |
| CCc1ccc(S(=O)(=O)c2ccccc2)cc1S(=O)(=O)NCCc1ccccn1 [Example 223, 2-ethyl-5-(phenylsulfonyl)-N-(2-pyridin-2-ylethyl)benzenesulfonamide] | – | 2.6 | – | 0.8 | 6.05 | – | – |
| CCc1ccc(S(=O)(=O)c2ccccc2)cc1S(=O)(=O)NCCCN(C)C [Example 228, N-[3-(dimethylamino)propyl]-2-ethyl-5-(phenylsulfonyl)benzenesulfonamide] | – | 3.3 | – | 1.2 | 5.10 and 4.82 | – | – |
| CCc1ccc(S(=O)(=O)c2ccccc2)cc1S(=O)(=O)NCCCN(CC)CC [Example 230, N-[3-(diethylamino)propyl]-2-ethyl-5-(phenylsulfonyl)benzene sulfonamide] | – | 3.2 | – | 1.2 | 4.80 | – | – |
| CC(C)c1ccc(S(=O)(=O)c2ccccc2)cc1S(=O)(=O)NCCc1ccccc1 [Example 295, 2-isopropyl-N-(2-phenylethyl)-5-(phenylsulfonyl)benzenesulfonamide] | – | 2.7 | – | 1.5 | 6.52 | – | – |
| CCc1ccc(S(=O)(=O)c2ccc(F)cc2)cc1S(=O)(=O)NCCn1ccnc1 [Example 297, 2-ethyl-5-[(4-fluorophenyl)sulfonyl]-N-[2-(1H-imidazol-1-yl)ethyl]benzenesulfonamide] | – | 4.3 | – | 1.4 | 6.40 | – | – |
| Cc1ccc(S(=O)(=O)c2ccccc2)cc1S(=O)(=O)NC1CCOCC1 [Example 298, 2-methyl-5-(phenylsulfonyl)-N-tetrahydro-2H-pyran-4-ylbenzenesulfonamide] | – | 3.2 | – | 1.3 | 6.10 | – | – |
| CCc1ccc(S(=O)(=O)c2ccc(F)cc2)cc1S(=O)(=O)NCCCn1ccnc1 [Example 303, 2-ethyl-5-[(4-fluorophenyl)sulfonyl]-N-[3-(1H-imidazol-1-yl)propyl]benzenesulfonamide] | – | 2.7 | – | 0.8 | 6.15 | – | – |
| CC(C)c1ccc(S(=O)(=O)c2ccc(F)cc2)cc1S(=O)(=O)NCCc1ccccn1 [Example 320, 5-[(4-fluorophenyl)sulfonyl]-2-isopropyl-N-(2-pyridin-2-ylethyl)benzenesulfonamide] | – | 2.8 | – | 1.2 | 6.05 | – | – |

Results, then the compound that gave them:

| fold induction at 14 µM (SFRP-1 [1]; read-out: Fold Induction with SFRP-1, Conc 14 μM, with SFRP-1, fold induction over SFRP-1 control, single dose) | fold induction at 15 µM (SFRP-1 [1]; [3]) | fold induction at 14 µM (SFRP-1 [1]; read-out: Fold Induction without SFRP-1, Conc 14 μM, without SFRP-1, single dose) | fold induction at 15 µM (SFRP-1 [1]; [4]) | pIC50 (SFRP-1 [2]) | Fold Induction with SFRP-1 (SFRP-1 [1]; [5]) | Fold Induction without SFRP-1 (SFRP-1 [1]; Conc 15 μM, without SFRP-1, single dose) | SMILES |
| --- | --- | --- | --- | --- | --- | --- | --- |
| 2.9 | 3.6 | 1 | 1 | 5.54 | – | – | Cc1ccc(S(=O)(=O)c2ccc(F)cc2)cc1S(=O)(=O)NCCCn1ccnc1 [Example 177, 5-[(4-fluorophenyl)sulfonyl]-N-[3-(1H-imidazol-1-yl)propyl]-2-methylbenzenesulfonamide] |
| – | 3.4 | – | 1.1 | 5.10 | – | – | COC(=O)CCNS(=O)(=O)c1cc(S(=O)(=O)c2ccccc2)ccc1C [Example 204, methyl N-{[2-methyl-5-(phenylsulfonyl)phenyl]sulfonyl}-beta-alaninate] |
| – | 3 | – | 1.1 | 5.52 and 5.96 and 5.68 | 3.6 fold | – | Cc1ccc(S(=O)(=O)c2ccccc2)cc1S(=O)(=O)NCCCn1ccnc1 [Example 219, N-[3-(1H-imidazol-1-yl)propyl]-2-methyl-5-(phenylsulfonyl)benzenesulfonamide] |
| – | 3 | – | 0.7 | 5.59 | – | – | CCc1ccc(S(=O)(=O)c2ccccc2)cc1S(=O)(=O)NCCN1CCOCC1 [Example 226, 2-ethyl-N-(2-morpholin-4-ylethyl)-5-(phenylsulfonyl)benzenesulfonamide] |
| – | 2.7 | – | 0.8 | 5.40 | – | – | CCc1ccc(S(=O)(=O)c2ccccc2)cc1S(=O)(=O)NCCCOC [Example 227, 2-ethyl-N-(3-methoxypropyl)-5-(phenylsulfonyl)benzenesulfonamide] |
| – | 3.4 | – | 1 | 6.52 and 6.22 | 2.8 fold | 0.8 fold | CCc1ccc(S(=O)(=O)c2ccccc2)cc1S(=O)(=O)NCCCn1ccnc1 [Example 231, 2-ethyl-N-[3-(1H-imidazol-1-yl)propyl]-5-(phenylsulfonyl)benzenesulfonamide] |
| – | 3.3 | – | 1.4 | 6.70 | – | – | CC(C)c1ccc(S(=O)(=O)c2ccccc2)cc1S(=O)(=O)NCCCn1ccnc1 [Example 296, N-[3-(1H-imidazol-1-yl)propyl]-2-isopropyl-5-(phenylsulfonyl)benzenesulfonamide] |
| – | 2.9 | – | 1.1 | 6.40 | – | – | CNc1ccc(S(=O)(=O)c2ccc(C)c(S(=O)(=O)NCCCn3ccnc3)c2)cc1 [Example 310, N-[3-(1H-imidazol-1-yl)propyl]-2-methyl-5-{[4-(methylamino)phenyl]sulfonyl}benzenesulfonamide] |
| – | 2.4 | – | 1 | 6.40 | – | – | CCNc1ccc(S(=O)(=O)c2ccc(C)c(S(=O)(=O)NCCCn3ccnc3)c2)cc1 [Example 311, 5-{[4-(ethylamino)phenyl]sulfonyl}-N-[3-(1H-imidazol-1-yl)propyl]-2-methylbenzenesulfonamide] |
| – | 1.9 | – | 1 | 6.30 | – | – | Cc1ccc(S(=O)(=O)c2ccc(N3CCOCC3)cc2)cc1S(=O)(=O)NCCCn1ccnc1 [Example 313, N-[3-(1H-imidazol-1-yl)propyl]-2-methyl-5-[(4-morpholin-4-ylphenyl)sulfonyl]benzenesulfonamide] |
| – | 3.3 | – | 1.3 | 5.92 | – | – | Cc1ccc(S(=O)(=O)c2ccccc2)cc1S(=O)(=O)NCCn1ccnc1 [Example 314, N-[2-(1H-imidazol-1-yl)ethyl]-2-methyl-5-(phenylsulfonyl)benzenesulfonamide] |
| – | 3.9 | – | 1.1 | 6.40 and 6.30 and 6.22 and 6.15 and 6.05 | – | – | CC(C)c1ccc(S(=O)(=O)c2ccc(F)cc2)cc1S(=O)(=O)NCCn1ccnc1 [Example 318, 5-[(4-fluorophenyl)sulfonyl]-N-[2-(1H-imidazol-1-yl)ethyl]-2-isopropylbenzenesulfonamide] |
| – | 3.5 | – | 1.1 | 6.22 | – | – | CC(C)c1ccc(S(=O)(=O)c2ccc(F)cc2)cc1S(=O)(=O)NCCCn1ccnc1 [Example 319, 5-[(4-fluorophenyl)sulfonyl]-N-[3-(1H-imidazol-1-yl)propyl]-2-isopropylbenzenesulfonamide] |
| – | 3.3 | – | 1.2 | 6.00 | – | – | CC(C)c1ccc(S(=O)(=O)c2ccc(F)cc2)cc1S(=O)(=O)NC1CCOCC1 [Example 321, 5-[(4-fluorophenyl)sulfonyl]-2-isopropyl-N-tetrahydro-2H-pyran-4-ylbenzenesulfonamide] |

Source: US20060276464A1, “Diarylsulfone sulfonamides and use thereof” (Wyeth, priority 2005, published 2006)
